From PubChem BioAssay (NCI)
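Each compound was tested at five concentrations against cells in 96-well plates for 48 hours. GI50 marks 50% less growth. TGI is the concentration that stops growth completely.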

Columns and labels:
Test in all cases: NCI-60 cell line screen, 48 h
A498 renal = system: A498 renal
ACHN renal = system: ACHN renal
CAKI-1 renal = system: CAKI-1 renal
COLO 205 colon = system: COLO 205 colon
DU-145 prostate = system: DU-145 prostate
HCC-2998 colon = system: HCC-2998 colon
HCT-15 colon = system: HCT-15 colon
HL-60(TB) leukemia = system: HL-60(TB) leukemia
HOP-92 NSCLC = system: HOP-92 NSCLC
HS 578T breast = system: HS 578T breast
HT29 colon = system: HT29 colon
IGROV1 ovarian = system: IGROV1 ovarian
K-562 leukemia = system: K-562 leukemia
KM12 colon = system: KM12 colon
LOX IMVI melanoma = system: LOX IMVI melanoma
M14 melanoma = system: M14 melanoma
MCF7 breast = system: MCF7 breast
MDA-MB-231 breast = system: MDA-MB-231 breast
MDA-MB-435 = system: MDA-MB-435
MOLT-4 leukemia = system: MOLT-4 leukemia
NCI-H226 lung = system: NCI-H226 lung
NCI-H23 lung = system: NCI-H23 lung
NCI-H460 lung = system: NCI-H460 lung
NCI-H522 lung = system: NCI-H522 lung
NCI/ADR-RES ovarian = system: NCI/ADR-RES ovarian
OVCAR-3 ovarian = system: OVCAR-3 ovarian
OVCAR-5 ovarian = system: OVCAR-5 ovarian
OVCAR-8 ovarian = system: OVCAR-8 ovarian
PC-3 prostate = system: PC-3 prostate
RPMI-8226 leukemia = system: RPMI-8226 leukemia
SF-268 CNS = system: SF-268 CNS
SF-295 CNS = system: SF-295 CNS
SF-539 CNS = system: SF-539 CNS
SK-MEL-2 melanoma = system: SK-MEL-2 melanoma
SK-MEL-28 melanoma = system: SK-MEL-28 melanoma
SK-MEL-5 melanoma = system: SK-MEL-5 melanoma
SK-OV-3 ovarian = system: SK-OV-3 ovarian
SN12C renal = system: SN12C renal
SNB-19 CNS = system: SNB-19 CNS
SNB-75 CNS = system: SNB-75 CNS
SR leukemia = system: SR leukemia
SW-620 colon = system: SW-620 colon
TK-10 renal = system: TK-10 renal
U251 CNS = system: U251 CNS
UACC-257 melanoma = system: UACC-257 melanoma
UACC-62 melanoma = system: UACC-62 melanoma
UO-31 renal = system: UO-31 renal

N=C(N)c1ccc(-c2ccc(-c3cc(Cl)cc(Cl)c3)o2)nc1 gave a GI50 (A498 renal) of 1470 nM, a TGI (A498 renal) of 3220 nM and a GI50 (ACHN renal) of 1810 nM. The TGI (ACHN renal) was 3360 nM, the GI50 (CAKI-1 renal) was 1760 nM and the TGI (CAKI-1 renal) was 3350 nM. It also gave a GI50 (COLO 205 colon) of 2010 nM, a TGI (COLO 205 colon) of 3780 nM and a GI50 (DU-145 prostate) of 1870 nM. It also gave a TGI (DU-145 prostate) of 3370 nM, a GI50 (HCC-2998 colon) of 1920 nM and a TGI (HCC-2998 colon) of 3800 nM. For the same compound, the GI50 (HCT-15 colon) was 1800 nM, the TGI (HCT-15 colon) was 3460 nM and the GI50 (HL-60(TB) leukemia) was 2420 nM. It also gave a TGI (HL-60(TB) leukemia) of 4620 nM, a GI50 (HOP-92 NSCLC) of 1560 nM and a TGI (HOP-92 NSCLC) of 3140 nM. For the same compound, the GI50 (HS 578T breast) was 1870 nM, the TGI (HS 578T breast) was 3930 nM and the GI50 (HT29 colon) was 1760 nM. It also gave a TGI (HT29 colon) of 3690 nM, a GI50 (IGROV1 ovarian) of 2090 nM and a TGI (IGROV1 ovarian) of 3790 nM. The GI50 (K-562 leukemia) was 1500 nM, the TGI (K-562 leukemia) was 3880 nM and the GI50 (KM12 colon) was 1850 nM. For the same compound, the TGI (KM12 colon) was 3440 nM, the GI50 (LOX IMVI melanoma) was 1770 nM and the TGI (LOX IMVI melanoma) was 3410 nM. It also gave a GI50 (M14 melanoma) of 1900 nM, a TGI (M14 melanoma) of 3630 nM and a GI50 (MCF7 breast) of 1730 nM. For the same compound, the TGI (MCF7 breast) was 3600 nM, the GI50 (MDA-MB-231 breast) was 1650 nM and the TGI (MDA-MB-231 breast) was 3300 nM. It also gave a GI50 (MDA-MB-435) of 1760 nM, a TGI (MDA-MB-435) of 3380 nM and a GI50 (MOLT-4 leukemia) of 2460 nM. For the same compound, the TGI (MOLT-4 leukemia) was 5050 nM, the GI50 (NCI-H226 lung) was 2130 nM and the TGI (NCI-H226 lung) was 5190 nM. The GI50 (NCI-H23 lung) was 1960 nM, the TGI (NCI-H23 lung) was 3930 nM and the GI50 (NCI-H460 lung) was 1900 nM. It also gave a TGI (NCI-H460 lung) of 3630 nM, a GI50 (NCI-H522 lung) of 1980 nM and a TGI (NCI-H522 lung) of 3860 nM. The GI50 (NCI/ADR-RES ovarian) was 1930 nM, the TGI (NCI/ADR-RES ovarian) was 3810 nM and the GI50 (OVCAR-3 ovarian) was 1880 nM. The TGI (OVCAR-3 ovarian) was 3390 nM, the GI50 (OVCAR-5 ovarian) was 1730 nM and the TGI (OVCAR-5 ovarian) was 3430 nM. For the same compound, the GI50 (OVCAR-8 ovarian) was 1880 nM, the TGI (OVCAR-8 ovarian) was 3830 nM and the GI50 (PC-3 prostate) was 1740 nM. For the same compound, the TGI (PC-3 prostate) was 3250 nM, the GI50 (RPMI-8226 leukemia) was 2030 nM and the TGI (RPMI-8226 leukemia) was 4330 nM. It also gave a GI50 (SF-268 CNS) of 1820 nM, a TGI (SF-268 CNS) of 3460 nM and a GI50 (SF-295 CNS) of 1920 nM. It also gave a TGI (SF-295 CNS) of 3630 nM, a GI50 (SF-539 CNS) of 1760 nM and a TGI (SF-539 CNS) of 3250 nM. It also gave a GI50 (SK-MEL-2 melanoma) of 2090 nM, a TGI (SK-MEL-2 melanoma) of 3900 nM and a GI50 (SK-MEL-28 melanoma) of 1800 nM. The TGI (SK-MEL-28 melanoma) was 3590 nM, the GI50 (SK-MEL-5 melanoma) was 1770 nM and the TGI (SK-MEL-5 melanoma) was 3250 nM. It also gave a GI50 (SK-OV-3 ovarian) of 1950 nM, a TGI (SK-OV-3 ovarian) of 3510 nM and a GI50 (SN12C renal) of 1620 nM. It also gave a TGI (SN12C renal) of 3160 nM, a GI50 (SNB-19 CNS) of 1630 nM and a TGI (SNB-19 CNS) of 3100 nM. It also gave a GI50 (SNB-75 CNS) of 1640 nM, a TGI (SNB-75 CNS) of 3150 nM and a GI50 (SR leukemia) of 1780 nM. For the same compound, the TGI (SR leukemia) was 4800 nM, the GI50 (SW-620 colon) was 1780 nM and the TGI (SW-620 colon) was 3410 nM. For the same compound, the GI50 (TK-10 renal) was 1870 nM, the TGI (TK-10 renal) was 3500 nM and the GI50 (U251 CNS) was 1760 nM. The TGI (U251 CNS) was 3310 nM, the GI50 (UACC-257 melanoma) was 1840 nM and the TGI (UACC-257 melanoma) was 3590 nM. The GI50 (UACC-62 melanoma) was 1780 nM, the TGI (UACC-62 melanoma) was 3360 nM and the GI50 (UO-31 renal) was 1540 nM. The TGI (UO-31 renal) was 3110 nM.
